Data: patent publication US7230033B2, “Pest control compositions and methods for their use” (United States of America as represented by the Secretary of …, priority 2000, dated 2007)

Assays:
[1] = tested on: ticks, fleas, and mosquitoes; assay: Pesticidal activity against all three arthropods, general statements (Examples 9, 17); assay type: in vivo; conditions: 24 hours exposure; initial screenings
Description: Concentrations of the compounds were prepared by 2-fold serial dilutions of a 0.5% (wt:vol) solution of the extracts in acetone (see, e.g., Panella et al., J. Med. Entomol., 42(3):352-358, 2005). The approximate toxicity of individual compounds and compounds in combination was determined with a total of 8 doses ranging from 0.002% to 0.25%. […] A control treated with acetone only was run with each series. Tick and flea susceptibility was evaluated using a modification of the disposable pipette method of Barnard et al. (J. Econ. Entomol., 74:466–69, 1981) and Maupin and Piesman (J. Med. Entomol., 31:319–321, 1994).
Briefly, groups of 10 nymphal I. scapularis and X. cheopis fleas were used in all tests (more than a total of 5,240 nymphs and 4,860 fleas were exposed to the compounds). The inner surface of 2-dram friction cap vials were treated with the compound/acetone solution, or acetone only as a control, and left to air-dry overnight (see also, Panella et al., J. Med. Entomol., 42(3):352-358, 2005. Three to 4 holes were made in the plastic cap to allow for air exchange. Nymphal ticks and adult fleas were then placed directly into the vials using forceps. Vials containing ticks or fleas were placed in desiccators for 24 h at 21° C. and 90% RH. Morbidity and mortality was recorded at 1, 2, 4, 8, and 24 h after initial exposure.
Adult mosquitoes were tested using the bottle bioassay method of Brogden and McAllister (J. Am. Mosq. Control Assoc., 14:159–64, 1998) with minor modifications. Natural product extracts were two-fold serially diluted for a total of 8 concentrations ranging from 0.002% to 0.25% in 1.5 ml of acetone. Individual dilutions were added to 250 ml Wheaton glass bottles and capped. Bottles were manipulated to evenly coat all inner surfaces. The caps were removed and bottles were allowed to air-dry overnight. […] Morbidity and mortality were recorded at 15, 30, 45, and 60 min and 24 hour intervals. […] The dose-mortality data was evaluated with probit analysis, using the LdP Line software, to determine LC50 and LC90 values.

[2] = tested on: I. scapularis nymphs; assay: Tick bioassay, treated 2-dram vials, probit analysis; assay type: in vivo, Ixodes scapularis; conditions: 24 h exposure; for LC50 / LC90: NE = not effective at concentrations tested; for Slope: probit
Text: A control treated with acetone only was run with each series.
For each time point, if ticks and fleas were incapable of movement, maintaining normal posture, leg coordination, ability to right themselves, or any signs of life, they were considered moribund or dead.

[3] = tested on: Ae. aegypti adults; assay: Adult mosquito bottle bioassay; assay type: in vivo, Aedes aegypti; conditions: 24 h exposure; for Slope: probit
Description: Adult mosquitoes were tested using the bottle bioassay method of Brogden and McAllister (J. Am. Mosq. Control Assoc., 14:159–64, 1998) with minor modifications. Natural product extracts were two-fold serially diluted for a total of 8 concentrations ranging from 0.002% to 0.25% in 1.5 ml of acetone. Individual dilutions were added to 250 ml Wheaton glass bottles and capped. Bottles were manipulated to evenly coat all inner surfaces. The caps were removed and bottles were allowed to air-dry overnight. Once bottles were completely dry, 10–50 (in some tests 25–50) adult mosquitoes were aspirated into the bottles. Mosquitoes were held in the bottles for 24 h at 23° C. and 85% RH. Morbidity and mortality were recorded at 15, 30, 45, and 60 min and 24 hour intervals. One bottle for each replicate was treated with acetone only and served as a control. The dose-mortality data was evaluated with probit analysis, using the LdP Line software, to determine LC50 and LC90 values.
Carvacrol was combined with compound 7, 9, or 10 at a 1:1 ratio (7.5 μl of carvacrol:7.5 μl of compound 7, 9, or 10 was added to 2,985 μl of acetone for a 0.5% solution, from which serial dilutions were made), and tested as previously described against nymphal ticks and adult and larval mosquitoes.

[4] = tested on: Ixodes scapularis nymphal ticks; assay: Tick repellency bioassay; assay type: in vivo; conditions: combinations 1:1 by weight
Text: One-hundred (100) μl of test compound was pipetted onto a cotton-tipped applicator mounted to the bottom center of a 1 dram glass shell vial using non-toxic modeling clay. A total of 8 concentrations were screened with doses ranging from 0.04–5.0%. Applicators treated with acetone only served as controls. A line was drawn around the perimeter of the vial immediate to the base of the treated cotton portion of the applicator. The area above the line was designated the “repellent zone”. The vial was allowed to air-dry 1 h before a single tick was introduced. Vials were covered with a single piece of mesh and fitted with a hollowed-out plastic cap to cover the opening of the vial; this prevented the tick from escaping but allowed for air exchange. Vials were breathed upon by investigators at 1 min intervals and a hand was placed over the test vials to provide stimuli for ticks to pass into the repellent zone. […] If the tick crossed over and remained in the “repellent zone” for ≧5 sec, the tick was deemed non-repelled by the test compound. Each test was replicated 10 times using a new tick for each test. Repellent activity was determined at 1, 2, 3, and 4 h after treatment. Probit analysis was used to determine repellent efficacy (RD50 and RD95).

[5] = tested on: ticks, fleas and mosquitoes; assay: Example 2 bioassay, qualitative comparison on ticks, fleas and mosquitoes (Examples 4, 6); assay type: in vivo
Description: (§1) Samples of the compounds listed below were obtained as described in Example 1, and screened for biocidal activities against nymphal Ixodes scapularis. In this example, 2% acetone solutions (wt/vol) of the compounds were applied to inner surfaces of 2-dram friction cap vials. Vials and caps were treated then allowed to dry for a minimum of 4 hours before placing 10 nymphs in each container. These same vials were used to challenge additional nymphs and adult I. scapularis ticks and adult Xenopsylla cheopis fleas through five weeks to observe any possible residual activity.
Nootkatol was tested using the bioassay presented in Example 2.
Two nootkatone samples were compared to nootkatone isolated from Alaska yellow cedar using the method presented in Example 1. The first sample was a natural extract of nootkatone taken from grapefruit oil purchased commercially. The second sample was a synthetically produced nootkatone purchased commercially.
Both samples were compared to the nootkatone originating from Alaska yellow cedar in terms of their biocidal activities. Using a bioassay method similar to that presented in Example 2, no qualitative differences were discernible among the nootkatone samples in terms of their biocidal effect on ticks, fleas and mosquitoes.

[6] = tested on: X. cheopis adults; assay: Flea bioassay, treated 2-dram vials, probit analysis; assay type: in vivo, Xenopsylla cheopis; conditions: 24 h exposure
Description: Med. […] A control treated with acetone only was run with each series. Tick and flea susceptibility was evaluated using a modification of the disposable pipette method of Barnard et al. (J. Econ. Entomol., 74:466-69, 1981) and Maupin and […]. Med. […] The inner surface of 2-dram friction cap vials were treated with the compound/acetone solution, or acetone only as a control, and left to air-dry overnight (see also, […] et al., J. Med. […] Three to 4 holes were made in the plastic cap to allow for air exchange. Nymphal ticks and adult fleas were then placed directly into the vials using forceps. […] For each time point, if ticks and fleas were incapable of movement, maintaining normal posture, leg coordination, ability to right themselves, or any signs of life, they were considered moribund or dead.

[7] = tested on: ticks, fleas, formicids and termites; assay: Persistence of biocidal activity in vials treated with 2% solutions (Example 5); assay type: in vivo; conditions: at 11 weeks
Description: as §1
Persistence of biocidal activity was determined for nootkatone and valencene-11,12-epoxide by using the vials as treated with the 2% solutions of Example 2. This bioassay employed groups of ticks, fleas, formicids and termites using a method similar to that described in Example 2. […] At 11 weeks, the biocidal activity began to dissipate below the 100% mortality level.

[8] = NE = not effective at concentrations tested

## CC1=CCC2C(C1)C2(C)C (stereo not shown) [Compound 1, 3-Carene]
[1]
  pesticidal activity: no pesticidal activity

## CC1=CCC(O)(C(C)C)CC1 (stereo not shown) [Compound 2, Terpinen-4-ol]
[1]
  pesticidal activity: no pesticidal activity

## COc1cc(C(C)C)ccc1C [Compound 3, Methyl carvacrol]
[1]
  pesticidal activity: no pesticidal activity

## C=C(C)[C@@H]1CCC2=C[C@@H](O)C[C@@H](C)[C@]2(C)C1 [Compound 12, Nootkatol]
[2]
  LC50: 0.023 percent concentration, wt:vol
  LC90: 0.059 percent concentration, wt:vol
  Slope: 3.069
[3]; [8]
  LC50: 0.004 percent concentration, wt:vol
  LC90: 0.01 percent concentration, wt:vol
[3]
  Slope: 3.201
[4]; 1 hr
  RD50: 0.047 % (w/v)
[4]; 4 hr
  RD50: 0.320 % (w/v)
[5]
  biocidal activity compared with nootkatene: essentially equivalent to the activity of nootkatene
[6]; [8]
  LC50: 0.024 percent concentration, wt:vol
[6]; probit
  Slope: 2.101

## C[C@@H]1CCC=C2CCC(C3(C)CO3)C[C@]21C (stereo partly shown) [Compound 13, valencene-11,12-epoxide]
[2]
  LC50: 21.219 percent concentration, wt:vol
  LC90: 3713.114 percent concentration, wt:vol
  Slope: 0.571
[3]
  Slope: 1.581
[7]
  mortality level: < 100%
